Key:
Type in all cases: cell-based, human
Naive T helper cells = experiment: Secretion of pro-inflammatory cytokines (IFN-γ, TNF-α) from TCR-stimulated T helper cells, conditioned media; settings: seven days
Protocol: The effect of methods and compounds of the present invention on T helper cell secretion of pro-inflammatory cytokines was evaluated as follows. Naive T helper cells (AllCells LLC, Emeryville, Calif.) obtained from human cord blood were stimulated (i.e., T cell receptor (TCR) stimulation) by seeding into 96-well culture dishes coated with 5 μg/ml anti-CD3 antibody (clone UCHT1, R&D Systems, Minneapolis, Minn.) (Tanaka et.al. (1989) J Immunol 142:2791-2795.), and 5 μg/ml anti-CD28 antibody (clone ANC28.1/D10, Ancell Corporation, Bayport, Minn.), and cultured at 37° C., 5% CO2 in RPMI-1640 (Mediatech Inc., Herndon, Va.) containing 1% FBS, 1 U/ml penicillin-1 μg/ml streptomycin (Invitrogen Corporation, Carlsbad, Calif.), and 50 U/ml IL-2 (Roche Diagnostics Corporation, Indianapolis, Ind.). At the time of seeding, cells were cultured with media alone or with media containing 2 ng/ml IL-12 (R&D Systems, Minneapolis, Minn.) (to stimulate differentiation of the T helper cells into Th1 cells) and 10 μg/ml anti-IL4 antibody (R&D Systems, Minneapolis, Minn.) (to block differentiation of the T helper cells into Th2 cells). Compound A or 1% DMSO (Veh) was added to the existing media and the cells were cultured for an additional seven days. The conditioned media was then collected from the cell cultures and analyzed for interferon-gamma (IFN-γ) and tumor necrosis factor-alpha (TNF-α) levels using MS2400 Human Tissue Culture Cytokine Detection Kits (MesoScale Technologies, Gaithersburg, Md.) according to the manufacturer's instructions. In another series of experiments, the effect of methods and compounds of the present invention on T helper cell secretion of pro-inflammatory cytokines was evaluated as follows. Naive T helper cells were stimulated substantially as described above with the following modification: cell cultures contained 100 U/ml penicillin-100 U/ml streptomycin. Various compounds of the present invention or 1% DMSO (Veh) was added to the existing media and the cells were cultured for an additional six days. Following stimulation with IL-12, conditioned media was then collected from the cell cultures and analyzed for interferon-gamma (IFN-γ) levels using MS2400 Human Tissue Culture Cytokine Detection Kits (MesoScale Technologies, Gaithersburg, Md.) according to the manufacturer's instructions.

naïve T helper cells = experiment: T helper cell number and viability (Guava ViaCount); settings: day 7
Protocol: To examine the effect of compounds and methods of the present invention on T helper cell number and viability, the following studies were performed. Human cord blood naive T helper cells (AllCells LLC, Emeryville, Calif.) were stimulated (i.e., T cell receptor (TCR) stimulation) by seeding into 96-well culture dishes coated with 5 μg/ml anti-CD3 antibody (clone UCHT1, R&D Systems, Minneapolis, Minn.), and 5 μg/ml anti-CD28 antibody (clone ANC28.1/D10, Ancell Corporation, Bayport, Minn.), and cultured at 37° C, 5% CO2 in RPMI-1640 (Mediatech Inc., Herndon, Va.) containing 1% FBS, 1 U/ml penicillin-1 μg/ml streptomycin (invitrogen Corporation, Carlsbad, Calif.), and 50 U/ml IL-2 (Roche Diagnostics Corporation, Indianapolis, Ind.). […] The T helper cells were then collected and cell number and cell viability were analyzed using Guava ViaCount reagents and the Guava PCA System (Guava Technologies, Hayward, Calif.).
In another set of experiments, the effect of compounds and methods of the present invention on T helper cell number and viability was determined. […] The T helper cells were then collected and cell number and cell viability were analyzed using Guava ViaCount reagents and the Guava PCA System (Guava Technologies, Hayward, Calif.).

naïve CD4+T Cells = experiment: T helper cell synthesis of pro-inflammatory (IFN-γ) and anti-inflammatory (IL-5) cytokines; settings: seven days
Protocol: To examine the effect of compounds and methods of the present invention on T helper cell synthesis of pro-inflammatory and anti-inflammatory cytokines, the following studies were performed. Human cord blood naive CD4+T Cells (AllCells LLC, Emeryville, Calif.) were stimulated (i.e., T cell receptor (TCR) stimulation) by seeding into 96-well culture dishes coated with 5 μg/ml anti-CD3 antibody (clone UCHT1, R&D Systems, Minneapolis, Minn.), and 5 μg/ml anti-CD28 antibody (clone ANC28.1/D10, Ancell Corporation, Bayport, Minn.), and cultured at 37° C., 5% CO2 in RPMI-1640 (Mediatech Inc., Hemdon, Va.) containing 1% FBS, 1 U/ml penicillin-1 μg/ml streptomycin (Invitrogen Corporation, Carlsbad, Calif.), and 50 U/ml IL-2 (Roche Diagnostics Corporation, Indianapolis, Ind.). At time of seeding, cells were treated according to one of the following conditions: 1) media alone (Con); 2) 10 ng/ml IL4, 10 μg/ml anti-IFN-γ antibody, and 10 μg/ml anti-IL-12 antibody (R&D Systems, Minneapolis, Minn.); or 3) 2 ng/ml IL-12 and 10 μg/ml anti-IL-4 antibody. […] The cell-conditioned media was collected and analyzed for IFN-γ levels (a pro-inflammatory cytokine) and IL-5 levels (an anti-inflammatory cytokine) using MS2400 Human Tissue Culture Kits (MesoScale Technologies, Gaithersburg, Md.) according to the manufacturer's instructions.

[1] = TCR-stimulated T helper cells with 2 ng/ml IL-12 and anti-IL4 antibody, vs IL-12 and vehicle
[2] = TCR-stimulated T helper cells, without IL-12 addition, vs vehicle

Cc1nc(C(=O)NCC(=O)O)c(O)c2ccc(Oc3ccccc3)cc12 [Compound A, [(4-Hydroxy-1-methyl-7-phenoxy-isoquinoline-3-carbonyl)-amino]-acetic acid]
IL-12-induced increase in IFN-γ levels (Naive T helper cells; [1]): inhibited the increase | IL-12-induced increase in TNF-α levels (Naive T helper cells; [1]): inhibited the increase | IFN-γ levels in the conditioned media (Naive T helper cells; [2]): reduction | TNF-α levels in the conditioned media (Naive T helper cells; [2]): reduction | percent of viable T helper cells (naïve T helper cells): did not decrease | total number of viable T helper cells (naïve T helper cells): did not decrease | IL-12-mediated increase in IFN-γ secretion (naïve CD4+T Cells; 2 ng/ml IL-12 and anti-IL-4 antibody): reduced the IL-12-mediated increase in IFN-γ secretion | IL-5 levels (naïve CD4+T Cells; 10 ng/ml IL4, anti-IFN-γ and anti-IL-12 antibody, vs IL-4 alone): increased IL-5 levels

— US20100144737A1, “METHODS FOR INHIBITING T HELPER CELL DIFFERENTIATION” (FibroGen, Inc., priority 2008, published 2010)
